≈ marks a conversion by molar mass, not a printed value. Non-standard residues stand in square brackets, D forms with d. Residues, ends and D or L forms follow the SMILES beside them. *: point of attachment. Phe(F5) = N[C@@H](Cc1c(F)c(F)c(F)c(F)c1F)C(=O)O; Palmitoyl = CCCCCCCCCCCCCCCC(=O)*
Legend:
Staphylococcus aureus = assay type: cell-based
Protocol: S. aureus (ATCC 25923) (American Type Culture Collection, Manassas, Va.) was cultured in LB broth overnight at 37° C. The suspension of the overnight culture was inoculated in fresh LB broth and cultured under aerobic conditions until reaching an OD600 value of approximately 0.5 (exponential growth phase). The bacterial cells were harvested by centrifugation at 1,500×g for 10 min, washed thrice with PBS, and re-suspended in the appropriate solution for experiment. The bacterial cell suspensions were diluted to an OD600 value of 0.1, which corresponds to 1×10^7 CFU/mL for S. aureus. Before experiment, the bacterial cells were then diluted 1:10 with PBS unless otherwise noted.
The MIC values of peptide amphiphiles were determined in PBS. The MIC determination was made by the Mueller-Hinton (MH) agar plate method. Two-fold serial dilutions of test compound (peptide amphiphiles) solutions in PBS were firstly made in a 96-well microtiter plate. The test compound concentration ranged from 500 μM to 1 μM with 50 μL volume. Then, 50 μL of S. aureus (1×10^6 CFU/mL) suspended in PBS was added to each well for a final cell density of 5×10^5 CFU/mL. The samples were incubated for 3 hrs at 37° C., and then streaked onto MH agar plates. The plates were incubated overnight at 37° C. and the MIC value was recorded based on the lowest test compound concentration that inhibited colony growth.
The minimum inhibitory concentration (MIC) of the PAs against Staphylococcus aureus was determined to estimate their bioactivity as antimicrobial agents. The bacterial cell density is 5×10^5 CFU/mL, and the concentration of the PA solutions is ranging from 0.3 μM to 500 μM. […], the MIC value for PAs Z1 and Z2 was determined to be 4 μM, while inhibition of the growth of the bacterium after treatment by parent PA and PA Z3 at 500 μM was not observed.

[1] = Rheological experiment on PA gels formed with CaCl2; assay type: physicochemical; conditions: 5 mM PA gelled with 0.2 M CaCl2, 100 Hz, 0.5% strain, 25° C.
Protocol: The mechanical property of the PAs was evaluated by performing rheological studies. 25 μL of 0.2 M CaCl2 were added to gel 250 μL of 5 mM PA MilliQ-water solution aged for 2 days on the rheometer. Tests were performed at 100 Hz with 0.5% strain at 25° C., using a 25 mm parallel plate with a 0.5 mm gap distance. The storage moduli used were taken from the time test at 5000 seconds. Frequency sweeps were done at a constant strain of 0.5%, and strain sweeps were done at a frequency of 100 Hz. The plateau modulus was determined as 10, 7.5, 7.5, and 2.8 kPa for parent PA, PA Z1, Z2, and Z3, respectively.

| minimum inhibitory concentration (MIC) (Staphylococcus aureus) | plateau modulus [1] | Compound |
| --- | --- | --- |
| 4 µM (≈ 5.17 µg/mL) | 7.5 kPa | CCCCCCCCCCCCCCCC(=O)N[C@@H](Cc1c(F)c(F)c(F)c(F)c1F)C(=O)N[C@H](C(=O)N[C@H](C(=O)N[C@@H](C)C(=O)N[C@@H](C)C(=O)N[C@@H](C)C(=O)N[C@@H](CCC(=O)O)C(=O)N[C@@H](CCC(=O)O)C(=O)N[C@@H](CCC(=O)O)C(N)=O)C(C)C)C(C)C [PA Z1] (Palmitoyl-[Phe(F5)]VVAAAEEE-NH2; C-terminus assumed) |
| 4 µM (≈ 5.17 µg/mL) | 7.5 kPa | CCCCCCCCCCCCCCCC(=O)N[C@H](C(=O)N[C@@H](Cc1c(F)c(F)c(F)c(F)c1F)C(=O)N[C@H](C(=O)N[C@@H](C)C(=O)N[C@@H](C)C(=O)N[C@@H](C)C(=O)N[C@@H](CCC(=O)O)C(=O)N[C@@H](CCC(=O)O)C(=O)N[C@@H](CCC(=O)O)C(N)=O)C(C)C)C(C)C [PA Z2] (Palmitoyl-V[Phe(F5)]VAAAEEE-NH2; C-terminus assumed) |
| > 500 µM | 2.8 kPa | CCCCCCCCCCCCCCCC(=O)N[C@H](C(=O)N[C@H](C(=O)N[C@@H](Cc1c(F)c(F)c(F)c(F)c1F)C(=O)N[C@@H](C)C(=O)N[C@@H](C)C(=O)N[C@@H](C)C(=O)N[C@@H](CCC(=O)O)C(=O)N[C@@H](CCC(=O)O)C(=O)N[C@@H](CCC(=O)O)C(N)=O)C(C)C)C(C)C [PA Z3] (Palmitoyl-VV[Phe(F5)]AAAEEE-NH2; C-terminus assumed) |
| > 500 µM | 10 kPa | CCCCCCCCCCCCCCCC(=O)N[C@H](C(=O)N[C@H](C(=O)N[C@H](C(=O)N[C@@H](C)C(=O)N[C@@H](C)C(=O)N[C@@H](C)C(=O)N[C@@H](CCC(=O)O)C(=O)N[C@@H](CCC(=O)O)C(=O)N[C@@H](CCC(=O)O)C(N)=O)C(C)C)C(C)C)C(C)C [parent PA, reference compound] (Palmitoyl-VVVAAAEEE-NH2; C-terminus assumed) |
